Reference: ChEMBL document CHEMBL1201862, “PubChem BioAssay data set” (2004)
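Cultured in 96-well plates, cells were exposed to test compound for 48 hours across five concentrations. GI50 = concentration required for 50% inhibition of growth.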 The source made the active and inactive calls. Cut-off read from the data, not from the text of the source: active = GI50 up to about 1.1 µM and inactive = higher.

Columns and labels:
Experiment in all cases: NCI anticancer screen, dose series, 48 h
HT-29 = tested on: HT-29
SK-MEL-2 = tested on: SK-MEL-2
EKVX = tested on: EKVX
NCI-H522 = tested on: NCI-H522
LOX IMVI = tested on: LOX IMVI
A498 = tested on: A498
MDA-MB-231 = tested on: MDA-MB-231
COLO 205 = tested on: COLO 205
SK-MEL-28 = tested on: SK-MEL-28
SF-295 = tested on: SF-295
SK-MEL-5 = tested on: SK-MEL-5
KM12 = tested on: KM12
RXF 393 = tested on: RXF 393
NCI-H23 = tested on: NCI-H23
MDA-MB-435 = tested on: MDA-MB-435
NCI-H460 = tested on: NCI-H460
HCT-116 = tested on: HCT-116
MDA-N = tested on: MDA-N
U-251 = tested on: U-251
IGROV-1 = tested on: IGROV-1
SW-620 = tested on: SW-620
MCF7 = tested on: MCF7
UACC-257 = tested on: UACC-257
OVCAR-4 = tested on: OVCAR-4
HL-60 = tested on: HL-60
SF-268 = tested on: SF-268
CAKI-1 = tested on: CAKI-1
SK-OV-3 = tested on: SK-OV-3
Malme-3M = tested on: Malme-3M
NCI/ADR-RES = tested on: NCI/ADR-RES
SN12C = tested on: SN12C
NCI-H226 = tested on: NCI-H226
UO-31 = tested on: UO-31
CCRF-CEM = tested on: CCRF-CEM
UACC-62 = tested on: UACC-62
DU-145 = tested on: DU-145
MOLT-4 = tested on: MOLT-4
SR = tested on: SR
HCC 2998 = tested on: HCC 2998
BT-549 = tested on: BT-549
A549 = tested on: A549
OVCAR-5 = tested on: OVCAR-5
HOP-62 = tested on: HOP-62
Hs-578T = tested on: Hs-578T
HOP-92 = tested on: HOP-92
ACHN = tested on: ACHN
OVCAR-3 = tested on: OVCAR-3
PC-3 = tested on: PC-3
OVCAR-8 = tested on: OVCAR-8
SNB-75 = tested on: SNB-75
HCT-15 = tested on: HCT-15
K562 = tested on: K562
786-0 = tested on: 786-0
SNB-19 = tested on: SNB-19
M14 = tested on: M14
TK-10 = tested on: TK-10
T47D = tested on: T47D
SF-539 = tested on: SF-539

## Cc1cc(C)c2c(n1)S(=O)(=O)N(CCCN1CCN(c3cccc(C(F)(F)F)c3)CC1)c1c-2nn(C)c1C
HT-29
  GI50: 16.6 µM (inactive)
SK-MEL-2
  GI50: > 100 µM (inactive)
EKVX
  GI50: > 100 µM (inactive)
NCI-H522
  GI50: 57.4 µM (inactive)
LOX IMVI
  GI50: 52.6 µM (inactive)
A498
  GI50: > 100 µM (inactive)
MDA-MB-231
  GI50: > 100 µM (inactive)
COLO 205
  GI50: 26.1 µM (inactive)
SK-MEL-28
  GI50: 60 µM (inactive)
SF-295
  GI50: 52.7 µM (inactive)
SK-MEL-5
  GI50: 23.1 µM (inactive)
KM12
  GI50: 52.8 µM (inactive)
RXF 393
  GI50: > 100 µM (inactive)
NCI-H23
  GI50: 61.2 µM (inactive)
MDA-MB-435
  GI50: 40.5 µM (inactive)
NCI-H460
  GI50: 89.3 µM (inactive)
HCT-116
  GI50: 61.8 µM (inactive)
MDA-N
  GI50: 39.9 µM (inactive)
U-251
  GI50: > 100 µM (inactive)
IGROV-1
  GI50: 55.2 µM (inactive)
SW-620
  GI50: > 100 µM (inactive)
MCF7
  GI50: 38.5 µM (inactive)
UACC-257
  GI50: 32.5 µM (inactive)
OVCAR-4
  GI50: 75.3 µM (inactive)
HL-60
  GI50: 24 µM (inactive)
SF-268
  GI50: > 100 µM (inactive)
CAKI-1
  GI50: 43.1 µM (inactive)
SK-OV-3
  GI50: > 100 µM (inactive)
Malme-3M
  GI50: > 100 µM (inactive)
NCI/ADR-RES
  GI50: 53.3 µM (inactive)
SN12C
  GI50: 97.5 µM (inactive)
NCI-H226
  GI50: 30.7 µM (inactive)
UO-31
  GI50: 44.4 µM (inactive)
CCRF-CEM
  GI50: 66.7 µM (inactive)
UACC-62
  GI50: 58.7 µM (inactive)
DU-145
  GI50: > 100 µM (inactive)
MOLT-4
  GI50: 10.8 µM (inactive)
SR
  GI50: 19.4 µM (inactive)
HCC 2998
  GI50: > 100 µM (inactive)
BT-549
  GI50: > 100 µM (inactive)
A549
  GI50: 65.6 µM (inactive)
OVCAR-5
  GI50: > 100 µM (inactive)
HOP-62
  GI50: > 100 µM (inactive)
Hs-578T
  GI50: > 100 µM (inactive)
HOP-92
  GI50: 45.3 µM (inactive)
ACHN
  GI50: > 100 µM (inactive)
OVCAR-3
  GI50: 67.1 µM (inactive)
PC-3
  GI50: 25.9 µM (inactive)
OVCAR-8
  GI50: > 100 µM (inactive)
SNB-75
  GI50: > 100 µM (inactive)
HCT-15
  GI50: 44.5 µM
K562
  GI50: 30.3 µM (inactive)
786-0
  GI50: > 100 µM (inactive)
SNB-19
  GI50: > 100 µM (inactive)
M14
  GI50: 43.9 µM (inactive)
TK-10
  GI50: > 100 µM (inactive)
T47D
  GI50: > 100 µM (inactive)
SF-539
  GI50: > 100 µM (inactive)
